Measured values reported in ChEMBL document CHEMBL1157831, “Chemical epigenetics alters the secondary metabolite composition of guttate excreted by an atlantic-forest-soil-derived Penicillium citreonigrum” (2010).

Tests used:
[1] = system: Candida albicans; test: Antifungal activity against Candida albicans ATCC 12983 at 15 ug in 6 mm disk after 10 hrs by disc-diffusion assay; format: functional; conditions: ATCC 12983, 10 h, read-out: IZ
[2] = system: Candida parapsilosis; test: Antifungal activity against Candida parapsilosis ATCC 12969 at 15 ug in 6 mm disk after 10 hrs by disc-diffusion assay; format: functional; conditions: Lodderomyces parapsilosis, ATCC 12969, 10 h; read-out: IZ
[3] = system: Nakaseomyces glabratus; test: Antifungal activity against Candida glabrata NRRL Y-65 at 15 ug in 6 mm disk after 10 hrs by disc-diffusion assay; format: functional; conditions: NRRL Y-65, 10 h, read-out: IZ
[4] = system: Candida tropicalis; test: Antifungal activity against Candida tropicalis ATCC 12968 at 15 ug in 6 mm disk after 10 hrs by disc-diffusion assay; format: functional; conditions: ATCC 12968, 10 h, read-out: IZ
[5] = system: Pichia kudriavzevii; test: Antifungal activity against Candida krusei ATCC 27803 at 15 ug in 6 mm after 10 hrs by disc-diffusion assay; format: functional; conditions: ATCC 27803, 10 h, read-out: IZ
[6] = system: Streptococcus pyogenes; test: Antimicrobial activity against Streptococcus pyogenes at 100 ug/disk after 10 hrs by disc-diffusion assay; format: functional; conditions: read-out: IZ
[7] = system: Staphylococcus aureus; test: Antimicrobial activity against Staphylococcus aureus ATCC 700787 at 100 ug/disk after 10 hrs by disc-diffusion assay; format: functional; conditions: ATCC 700787, 10 h, read-out: IZ
[8] = system: Salmonella enterica; test: Antimicrobial activity against Salmonella typhimurium at 100 ug/disk after 10 hrs by disc-diffusion assay; format: functional, Salmonella enterica subsp. enterica serovar Typhimurium; conditions: read-out: IZ
[9] = system: Escherichia coli; test: Antimicrobial activity against Escherichia coli at 100 ug/disk after 10 hrs by disc-diffusion assay; format: functional; conditions: read-out: IZ
[10] = system: Staphylococcus epidermidis; test: Antimicrobial activity against Staphylococcus epidermidis ATCC 12228 at 30 ug in 6 mm disk after 10 hrs by disc-diffusion assay; format: functional; conditions: ATCC 12228, 10 h, read-out: IZ
[11] = system: Candida albicans; test: Antifungal activity against Candida albicans ATCC 12983 at 30 ug in 6 mm disk after 10 hrs by disc-diffusion assay; format: functional; conditions: ATCC 12983, 10 h, read-out: IZ
[12] = system: Candida parapsilosis; test: Antifungal activity against Candida parapsilosis ATCC 12969 at 30 ug in 6 mm disk after 10 hrs by disc-diffusion assay; format: functional; conditions: Lodderomyces parapsilosis, ATCC 12969, 10 h; read-out: IZ
[13] = system: Candida tropicalis; test: Antifungal activity against Candida tropicalis ATCC 12968 at 30 ug in 6 mm disk after 10 hrs by disc-diffusion assay; format: functional; conditions: ATCC 12968, 10 h, read-out: IZ
[14] = system: Pichia kudriavzevii; test: Antifungal activity against Candida krusei ATCC 27803 at 30 ug in 6 mm disk after 10 hrs by disc-diffusion assay; format: functional; conditions: ATCC 27803, 10 h, read-out: IZ
[15] = system: Staphylococcus aureus; test: Antimicrobial activity against Staphylococcus aureus ATCC 700787 at 15 ug in 6 mm disk after 10 hrs by disc-diffusion assay; format: functional, organism-based
[16] = system: Staphylococcus epidermidis; test: Antimicrobial activity against Staphylococcus epidermidis ATCC 12228 at 15 ug in 6 mm disk after 10 hrs by disc-diffusion assay; format: functional, organism-based
[17] = system: Burkholderia cepacia; test: Antimicrobial activity against Burkholderia cepacia ATCC 25608 at 15 ug in 6 mm disk after 10 hrs by disc-diffusion assay; format: functional, organism-based
[18] = system: Klebsiella pneumoniae; test: Antimicrobial activity against Klebsiella pneumoniae ATCC 33495 at 15 ug in 6 mm disk after 10 hrs by disc-diffusion assay; format: functional, organism-based
[19] = system: Acinetobacter baumannii; test: Antimicrobial activity against Acinetobacter baumannii ATCC 19606 at 15 ug in 6 mm disk after 10 hrs by disc-diffusion assay; format: functional, organism-based
[20] = system: Pseudomonas aeruginosa; test: Antimicrobial activity against Pseudomonas aeruginosa ATCC 10145 at 15 ug in 6 mm disk after 10 hrs by disc-diffusion assay; format: functional, organism-based
[21] = system: Escherichia coli; test: Antimicrobial activity against Escherichia coli ATCC 11775 at 15 ug in 6 mm disk after 10 hrs by disc-diffusion assay; format: functional, organism-based
[22] = system: Enterobacter cloacae; test: Antimicrobial activity against Enterobacter cloacae ATCC 13047 at 15 ug in 6 mm disk after 10 hrs by disc-diffusion assay; format: functional, organism-based

CC(=O)N1CCN(c2ccc(OCC3COC(Cn4ccnc4)(c4ccc(Cl)cc4Cl)O3)cc2)CC1 (stereo not drawn) [KETOCONAZOLE]
zone of inhibition at 15 µg/disc [1]: 15 mm
zone of inhibition at 15 µg/disc [2]: 15 mm
zone of inhibition at 15 µg/disc [3]: 15 mm
zone of inhibition at 15 µg/disc [4]: 15 mm
zone of inhibition at 15 µg/disc [5]: 15 mm

C/C=C(/C(=O)O)N1C(=O)C=C(C)C1=O [PENCOLIDE]
zone of inhibition at 100 µg/disc [6]: 13 mm
zone of inhibition at 100 µg/disc [7]: 13 mm
zone of inhibition at 100 µg/disc [8]: 13 mm
zone of inhibition at 100 µg/disc [9]: 13 mm

CC[C@H](C)/C=C(C)/C=C/C1=CC2=C(Cl)C(=O)[C@](C)(OC(C)=O)C(=O)C2=CN1 [SCLEROTIORAMINE]
zone of inhibition at 30 µg/disc [10]: 8 mm
zone of inhibition at 30 µg/disc [11]: 8 mm
zone of inhibition at 30 µg/disc [12]: 7 mm
zone of inhibition at 30 µg/disc [13]: 8 mm
zone of inhibition at 30 µg/disc [14]: 8 mm

CC[C@H](C)/C=C(C)/C=C/C1=CC2=C(Cl)C(=O)[C@](C)(OC(C)=O)C(=O)C2=CO1 [SCLEROTIORIN]
zone of inhibition at 30 µg/disc [10]: 8 mm

GENTAMICIN
inhibition zone (IZ) [15]: 8 mm
inhibition zone (IZ) [16]: 8 mm
inhibition zone (IZ) [17]: 8 mm
inhibition zone (IZ) [18]: 8 mm
inhibition zone (IZ) [19]: 8 mm
inhibition zone (IZ) [20]: 8 mm
inhibition zone (IZ) [21]: 8 mm
inhibition zone (IZ) [22]: 8 mm
